Laboratory results: ChEMBL document CHEMBL1201862, “PubChem BioAssay data set” (2004)
Activity calls are given as the source filed them.

Experiments:
[1] = molecular target: Paired box protein Pax-8 (Homo sapiens, UniProt Q06710); experiment: inhibitors of PAX8-driven TPO luciferase reporter, dose response, RMG-I cells, cherry-pick (AID 687027); assay type: functional, cell-based;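 note: luciferase reporter driven by Pax8 target thyroperoxidase promoter measured by SteadyGlo luminescence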
[2] = inhibitors of PGC1a acetylation in cells, dose response, cell-based, cherry-picked samples (AID 720514); assay type: functional;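 note: potency may reflect raised or lowered acetylation signal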
[3] = non-specific cell cytotoxicity, dose response, cytotoxicity control for PAX8 inhibitor project, plate reader, dry powder samples (AID 743021); assay type: functional, cell-based
[4] = molecular target: T1, Oxysterols receptor LXR-beta (Homo sapiens, UniProt P55055); assay type: functional, cell-based;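 note: Cell-based luminescence dose-response assay of agonist activity at LXR, run as a confirmatory counterscreen to a daf-12 agonist screen; HEK293 cells with Gal4-LXR fusion and GAL4-driven luciferase reporter; agonist potency from rising luciferase signal of a Gal4-LXR reporter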
T1 sequence (P55055 whole entry): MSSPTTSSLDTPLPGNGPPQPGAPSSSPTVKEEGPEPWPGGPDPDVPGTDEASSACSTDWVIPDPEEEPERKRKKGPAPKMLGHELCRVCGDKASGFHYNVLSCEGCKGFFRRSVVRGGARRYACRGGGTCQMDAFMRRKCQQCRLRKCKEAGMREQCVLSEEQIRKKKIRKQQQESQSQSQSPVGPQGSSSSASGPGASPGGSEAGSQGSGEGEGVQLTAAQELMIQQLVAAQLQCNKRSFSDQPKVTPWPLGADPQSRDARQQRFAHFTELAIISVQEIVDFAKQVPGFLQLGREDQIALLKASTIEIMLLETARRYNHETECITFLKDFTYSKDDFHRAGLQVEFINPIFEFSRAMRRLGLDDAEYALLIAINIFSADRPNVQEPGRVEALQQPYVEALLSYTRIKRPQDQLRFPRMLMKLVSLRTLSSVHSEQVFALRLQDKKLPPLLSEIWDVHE

[5] = cells
[6] = A549 cell cytotoxicity, dose response, cytotoxicity control, plate reader, cherry-pick, antagonist series (AID 743412); assay type: functional, cell-based
[7] = HepG2 cell cytotoxicity, dose response, cytotoxicity control, plate reader, cherry-pick, antagonist series (AID 743416); assay type: functional, cell-based
[8] = LGR2 antagonists, dose response, cell-based, HEK293, CRE-luciferase reporter, cherry pick, set 2 (AID 743343); assay type: functional;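 note: transfected cells were stimulated with diluted bursicon conditioned medium after compound addition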
[9] = HepG2 cell cytotoxicity, dose response, cytotoxicity control, ATP luminescence, cherry-pick, set 6 (AID 1053125); assay type: functional, cell-based
[10] = cells; details: HEK293
[11] = test system: HeLa; experiment: HeLa cell cytotoxicity, dose response, cytotoxicity control, ATP luminescence, cherry-pick samples (AID 687004); assay type: functional, cell-based; details: Homo sapiens
[12] = test system: HEK293; experiment: HEK293T cell cytotoxicity, dose response, cytotoxicity control, ATP luminescence, cherry-pick samples (AID 687005); assay type: functional, cell-based; details: Homo sapiens;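 note: cells exposed to compound for 48 hours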
[13] = HEK293 Cytotoxicity Assay Measured in Cell-Based System Using Plate Reader - 7071-01_Inhibitor_Dose_CherryPick_Activity_Set2.; assay type: functional
[14] = molecular target: T2, Scavenger receptor class B member 1 (Mus musculus, UniProt Q61009); experiment: inhibitors of SR-BI dependent HDL uptake, dose response, ldlA[mSR-BI] CHO cells, fluorescence plate reader, dry powder, set 9 (AID 623880); assay type: functional, cell-based
T2 sequence (Q61009 whole entry): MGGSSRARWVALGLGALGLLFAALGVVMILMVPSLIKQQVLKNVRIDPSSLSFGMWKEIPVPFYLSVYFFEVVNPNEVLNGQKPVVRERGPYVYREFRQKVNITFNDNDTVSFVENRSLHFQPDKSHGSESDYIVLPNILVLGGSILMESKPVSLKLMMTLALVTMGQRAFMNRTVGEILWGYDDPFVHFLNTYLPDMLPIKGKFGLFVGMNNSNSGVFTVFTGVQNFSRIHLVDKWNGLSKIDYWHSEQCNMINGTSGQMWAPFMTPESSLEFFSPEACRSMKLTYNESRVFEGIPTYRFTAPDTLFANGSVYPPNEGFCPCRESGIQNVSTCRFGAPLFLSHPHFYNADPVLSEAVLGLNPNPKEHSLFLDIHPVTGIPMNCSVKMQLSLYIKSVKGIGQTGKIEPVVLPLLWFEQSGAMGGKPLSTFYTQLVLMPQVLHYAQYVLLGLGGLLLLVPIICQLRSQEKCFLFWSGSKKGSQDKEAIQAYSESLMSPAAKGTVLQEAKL

[15] = molecular target: T2, Scavenger receptor class B member 1; experiment: inhibitors of SR-BI-mediated HDL uptake, dose response, cell-based, ldlA[mSR-BI] CHO, DiI fluorescence, dry powder, set 10 (AID 624029); assay type: functional
[16] = cells; assay type: functional, cell-based
[17] = molecular target: T3, Trace amine-associated receptor 1 (Homo sapiens, UniProt Q96RJ0); experiment: Fluorescence-based cell-based high throughput dose response assay to identify agonists of the human trace amine associated receptor 1 (TAAR1).; assay type: functional
T3 sequence (Q96RJ0 whole entry): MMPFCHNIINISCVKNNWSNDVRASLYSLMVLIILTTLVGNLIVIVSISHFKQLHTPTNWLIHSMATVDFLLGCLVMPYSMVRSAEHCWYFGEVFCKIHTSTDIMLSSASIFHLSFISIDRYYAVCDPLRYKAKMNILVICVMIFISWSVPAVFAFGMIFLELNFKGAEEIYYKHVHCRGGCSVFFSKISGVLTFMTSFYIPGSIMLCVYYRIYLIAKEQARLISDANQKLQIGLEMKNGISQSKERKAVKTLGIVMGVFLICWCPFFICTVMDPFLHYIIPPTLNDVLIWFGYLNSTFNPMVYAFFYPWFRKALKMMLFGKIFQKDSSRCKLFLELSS

[18] = molecular target: T3, Trace amine-associated receptor 1; experiment: Counterscreen for agonists of the human trace amine associated receptor 1 (hTAAR1): Fluorescence-based cell-based high throughput dose response assay to identify hTAAR1 agonist that also desensitize TAAR1 receptor response.; assay type: functional
[19] = cells; assay type: functional, cell-based; remark: listed apart in the source
[20] = IGROV1 ovarian cancer cell cytotoxicity, dose response, PAX8 inhibitor project, plate reader, dry powder samples (AID 743043); assay type: functional, cell-based; details: IGROV-1
[21] = cytotoxicity in OVCAR8 ovarian cancer cells, dose response, PAX8 project, cell-based, plate reader, dry powder samples (AID 743197); assay type: functional; details: OVCAR-8
[22] = HIV Env cell-cell fusion inhibitors, dose response, HIV entry, plate reader, dry powder (AID 687023); assay type: functional, cell-based
[23] = cells; details: A549

Paired box protein Pax-8, sequence (Q06710 whole entry): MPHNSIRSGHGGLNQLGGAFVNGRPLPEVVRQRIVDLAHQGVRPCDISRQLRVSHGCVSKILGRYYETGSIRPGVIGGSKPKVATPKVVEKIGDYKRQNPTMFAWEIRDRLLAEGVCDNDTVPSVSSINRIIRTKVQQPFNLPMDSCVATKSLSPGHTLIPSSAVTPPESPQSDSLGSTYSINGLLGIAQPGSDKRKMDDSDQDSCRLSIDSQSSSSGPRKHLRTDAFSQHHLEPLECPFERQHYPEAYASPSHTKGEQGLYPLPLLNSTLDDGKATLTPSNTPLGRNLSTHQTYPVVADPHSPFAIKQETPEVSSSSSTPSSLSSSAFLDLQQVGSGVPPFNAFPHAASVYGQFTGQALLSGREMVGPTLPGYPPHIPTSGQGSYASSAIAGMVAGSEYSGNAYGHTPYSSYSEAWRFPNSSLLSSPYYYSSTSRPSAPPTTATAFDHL

For CC(C)CN1CCN(C(=O)COC(=O)c2ccc(S(C)(=O)=O)c([N+](=O)[O-])c2)CC1, the AC50 [1] was 13 µM (active), the AC50 [2] was 10.6 µM (active) and the AC50 [3] was 22.7 µM (active).
With NC(=O)c1c(NC(=O)c2ccccc2)sc2c1CCCC2 the EC50 [4] was > 67.6 µM (inactive) and the EC50 [5] was > 67.6 µM (inactive).
In the case of CCCCn1nnnc1C(c1cc2ccccc2o1)N1CCN(c2ccncc2)CC1 (configuration not stated), the AC50 [6] is reported as 32.6 µM (active), the AC50 [7] is reported as > 52 µM (inactive) and the AC50 [8] is reported as 40.1 µM (active).
In the case of COc1ccc(CNC(=O)c2sc(=O)n(Cc3ccc(C)cc3)c2C)cc1OC, the AC50 [9] is reported as > 52 µM (inactive) and the AC50 [10] is reported as > 52 µM (inactive).
With C[C@H]1CN([C@@H](C)CO)C(=O)Cc2cc(NC(=O)CCCCCC(=O)Nc3ccccc3N)ccc2O[C@H]1CN(C)Cc1ccc2c(c1)OCO2 the AC50 [11] was 51.7 µM (active), the AC50 [12] was 22.8 µM (active) and the AC50 [13] was 22.8 µM (active).
With C[C@@H]1CN([C@H](C)CO[Si](C)(C)C(C)(C)C)C(=O)c2cc(NC(=O)C3CCCCC3)ccc2O[C@H]1CN(C)C(=O)c1ccc(Cl)cc1 the AC50 [14] was > 70 µM (inactive) and the AC50 [15] was > 70 µM (inactive).
In the case of COC(=O)[C@]12C[C@H](CC(=O)NCCc3ccccc3OC)C(=O)N(Cc3ccccc3)C1=C[C@H](C(C)(C)C)O[C@@H]2C, the IC50 [16] is reported as > 29.9 µM (inactive), the EC50 [17] is reported as 2.45 µM (active) and the IC50 [18] is reported as 7.35 µM (active). The EC50 [19] was > 29.9 µM (inactive).
For C[C@@H]1CN([C@H](C)CO)S(=O)(=O)c2ccc(-c3ccccc3)cc2O[C@H]1CN(C)C(=O)C1CCCCC1, the AC50 [11] was > 52 µM (inactive), the AC50 [12] was 16.2 µM (active) and the AC50 [13] was 16.2 µM (active).
For C[C@@H]1CCCCO[C@@H](CN(C)Cc2ccc(C(F)(F)F)cc2)[C@H](C)CN([C@@H](C)CO)C(=O)c2cc(NS(=O)(=O)c3ccc(F)cc3)ccc2O1, the AC50 [1] was 5.83 µM (active), the AC50 [20] was 55.8 µM (active) and the AC50 [21] was > 70 µM (inactive).
For Cc1noc(C)c1S(=O)(=O)Nc1cccc2c1O[C@@H](CN(C)Cc1ccc(C(F)(F)F)cc1)[C@@H](C)CN([C@@H](C)CO)C2=O, the AC50 [22] was 53.5 µM (active).
With O=[N+]([O-])c1cccc(Nc2c3ccccc3nc3ccccc23)c1 the AC50 [23] was 46.4 µM (active).
